Each structure is given as a SMILES string.

For experiment [1], the system named is hypocotyl of Arabidopsis (Columbia). Description: Functional analysis of putative fipexide metabolites, morphological observation of cut hypocotyl on 1/2 MS medium. It is filed as cell-based. Conditions: for callus induction activity: 0, 5, 15, 30, 45 or 60 μM in 1/2 MS medium, hypocotyl. The source says:
Fipexide is a compound formed by an amide bond between 4-chlorophenoxyacetic acid and 1-piperonylpiperazine, and fipexide is deduced to be non-enzymatically hydrolyzed in a plant. Thus, treatment with 4-chlorophenoxyacetic acid or 1-piperonylpiperazine alone or treatment with both thereof was attempted.
Arabidopsis (Columbia) was allowed to germinate under weak lighting conditions for 7 days, the hypocotyl cut therefrom was placed on a ½ MS medium supplemented with 4-chlorophenoxyacetic acid and/or 1-piperonylpiperazine at 0, 5, 15, 30, 45, or 60 μM, and morphological observation thereof was conducted.

In experiment [2] the test system is African violet leaf explants. Conditions: cited from earlier work.
The test system of experiment [3] is Populus stalk samples (Populus tremula x tremuloides T89). Description: Transformation by the Agrobacterium method utilizing callus induction caused by fipexide. It is filed as cell-based. On the procedure: Under general callus induction conditions for Populus, callus induction was conducted with the use of fipexide instead of auxin/cytokinine, and whether or not Agrobacterium-infected callus was transformed was examined. The GUS gene was introduced into a pH35GS binary vector comprising a Gateway cassette (Kubo M. et al., Genes & Dev., 19, 1855-1860, 2005) (manufactured by […] Innovations Inc.; Production code: IN3-VEC17) using the Gateway system, and the resulting binary vector was used for the Agrobacterium method, so as to confirm infection. 1. From young plants of aseptically cultured Populus (Populus tremula x tremuloides […]) that had been grown in pots, stalk samples (length: 5 mm) were cut. 2. The stalk samples were cultured in the presence of Agrobacterium (for 3 days, in the dark, at 22° C.). 3. After Agrobacterium was washed away, the stalk samples were placed on MS1 medium or modified MS1 medium (containing 30 μM fipexide instead of 3-indolebutyric acid (IBA) and 6-benzylaminopurine (BAP)) and cultured at 25° C. 4. […] Two months after the initiation of callus induction culture, 23 calluses were fixed in 90% (w/w) acetone at -30° C. overnight, the samples were washed twice with 50 mM PBS buffer (pH 7.0), and the samples were subjected to incubation in GUS substrate solution at 37° C. for 15 minutes for staining.

In a further experiment the test system is tomato seed (Micro-Tom). Description: Fipexide activity test using other plants: tomato seed in fipexide medium. It counts as in vivo. The procedure: (§1) As with the case of Arabidopsis germination conditions, plants were cultured in a fipexide medium with the use of sterilized seeds.
The subject of experiment [4] is germinated Eucalyptus seeds. Description: Fipexide activity test using other plants: Eucalyptus seeds in fipexide medium. It is filed as in vivo. The procedure:
as §1

Experiment [5] has as its system root organ of Arabidopsis (Columbia). Description: Callus induction and redifferentiation by treatment with fipexide (cut root organ). It is filed as cell-based. The following applies: fipexide 45 μM for 2 weeks. On the procedure:
The root organ of Arabidopsis (Columbia) was cut, treated in a ½ MS medium supplemented with fipexide at 45 μM for 2 weeks to induce a callus, and then cultured in a redifferentiation medium (auxin/cytokinine). […] In contrast, the root organ of Arabidopsis (Columbia) was cut and then cultured in the redifferentiation medium without callus induction. As a result, redifferentiation was not observed (FIG. 2B).

Experiment [6] relates to wild-type rice (Nipponbare). Description: Fipexide activity test using other plants: rice seeds in fipexide medium. It counts as in vivo. The procedure: as §1
For experiment [7], the system named is stalks and roots of wild-type Populus. Description: Fipexide callus induction and redifferentiation in stalks and roots of Populus. It counts as cell-based. The procedure: The induced callus was cultured in a redifferentiation medium (i.e., a MS medium (0.9% agarose and 1.5% sucrose) containing auxin (indoleacetic acid) at 0.15 mg/1 and cytokinine (N^6-2-isopentenyladenine) at 0.5 mg/l or a ½ MS medium (0.9% Phytoagar (agarose for plants) and 0.2% sucrose) containing 3-indolebutyric acid (IBA) at 0.1 mg/l and 6-benzylaminopurine (BAP) at 0.2 mg/l).
The conditions of the aseptic stalk (which is not the hypocotyl) and the root organ sections of wild-type Populus 30 days after cutting in the presence of fipexide are shown at the center of FIG. 7, and the conditions thereof 30 days after the medium was exchanged with a fresh redifferentiation medium are shown on the right of FIG. 7.

For the next experiment, the system named is Arabidopsis hypocotyl. Description: Comparison of fipexide with conventional technique (2,4-D/kinetin) for callus induction. It counts as cell-based. Conditions: fipexide 45 μM vs 2,4-dichlorophenoxyacetic acid 2.26 μM and kinetin 0.465 μM, constant lighting, 87 days. The procedure:
Callus induction in Arabidopsis that was carried out at the optimized auxin/cytokinine concentration (i.e., 2,4-dichlorophenoxyacetic acid at 2.26 μM and kinetin at 0.465 μM) was compared with callus induction that was carried out at the fipexide concentration of 45 μM.

Experiment [8] relates to Arabidopsis (Columbia) wild-type seeds. The experiment is described as follows: Morphological observation of Arabidopsis (Columbia) by treatment with fipexide (seeds sowed in 1/2 MS medium). It counts as in vivo. Conditions: for callus formation (site): 1/2 MS medium, seeds. The procedure: Wild-type seeds of Arabidopsis (Columbia) were sowed in a ½ MS medium supplemented with fipexide at 0, 15, 30, or 45 μM, and morphological observation was conducted.

Experiment [9] has as its system cucumber seed (Natsu Suzumi). The experiment is described as follows: Fipexide activity test using other plants: cucumber seed in fipexide medium. It counts as in vivo. The procedure: as §1
The subject of a further experiment is soybean seed (Tsurunoko). The experiment is described as follows: Fipexide activity test using other plants: soybean seed in fipexide medium. It counts as in vivo. On the procedure:
as §1

As to `c1cc2c(cc1CN1CCNCC1)OCO2` [1-piperonylpiperazine, 1-(3,4-methylenedioxybenzyl)piperazine], the callus induction activity in [1] is given as “callus induction activity was not observed”. In addition, in [1] (treatment alone), the leaf area result is on record as “enlarged”; the “number and length of lateral roots” value was “increased”.

Turning to `O=C(O)COc1ccc(Cl)cc1` [4-chlorophenoxyacetic acid], the callus induction activity in [1] was “callus induction activity was observed”. Besides, the callus formation efficiency in experiment [2] is on record as “not high”. Also, the “number of days required from implanting of explants to callus formation, and formation of adventitious shoots and adventitious roots” value in experiment [2] (treatment at a particular concentration) is reported as “reduced”.

As to `O=C(COc1ccc(Cl)cc1)N1CCN(Cc2ccc3c(c2)OCO3)CC1` [fipexide, 1-[(p-chlorophenoxy)acetyl]-4-piperonylpiperazine], the “GUS activity in calluses (transformation)” value in [3] (23 calluses, two months after initiation of callus induction culture, 30 μM fipexide) is recorded as “GUS activity was observed in all samples”. Moreover, the “callus formation on the fourth week” value in experiment [3] (Agrobacterium-treated stalk samples, 25° C., modified MS1 medium with 30 μM fipexide vs conventional MS1 medium) is “many calluses were formed”. Further, the callus induction is “callus induction was observed” with tomato seed (Micro-Tom); “callus induction was observed” in experiment [4]; “callus induction was observed” in experiment [6] (germinated rice seeds, fipexide medium); “callus induction was observed in the stalks and the roots” in [7] (stalks and roots of Populus in fipexide medium); “callus induction was observed” in [9]; “callus induction was observed” in the experiment on soybean seed (Tsurunoko). In addition, the “redifferentiation in redifferentiation medium (auxin/cytokinine) after callus induction” value in experiment [5] is “redifferentiation was observed”. In [1], the callus induction activity is “callus induction activity was observed”. In addition, the callus formation in experiment [6] (fipexide 45 μM, 30 days after seed germination) is listed as “Callus formation was observed”. Moreover, in experiment [7] (MS medium with indoleacetic acid 0.15 mg/l and N6-2-isopentenyladenine 0.5 mg/l, or 1/2 MS medium with IBA 0.1 mg/l and BAP 0.2 mg/l), the “redifferentiation of the induced callus in redifferentiation medium” value is “redifferentiation was observed”. Further, the “callus induction efficiency compared with optimized auxin/cytokinine” value in the experiment on Arabidopsis hypocotyl is recorded as “higher than that attained at the optimized auxin/cytokinine concentration”. For the same compound, the “callus formation (site)” value was “callus formation was mainly observed in the root” in experiment [8] (fipexide 15 μM (low concentration)) and “in the shoot apex” in experiment [8] (fipexide 45 μM (high concentration)). For the same compound, in experiment [8] (fipexide at high concentration), the “callus formation in the root” value is “suppressed”.

The record behind these values is patent US11345885B2, “Agent for inducing callus and method for inducing callus” (RIKEN, priority 2014, dated 2022).
